Experimental findings from patent US11873313B1, “Development of novel tetra nuclear distorted square anti-prism Dy (III) imine complex for pharmaceutical and industrial applications” (KING FAISAL UNIVERSITY, priority 2023, dated 2024) are described below.

For assay [1], the system named is breast cancer cell line. Nature of the assay: Anti-oxidant activity. As to conditions: against the breast cancer cell line (so in the source).
In assay [2] the test system is E-coli bacteria. Nature of the assay: Anti-microbial activity (antibacterial, inhibition zone and MIC). Format: cell-based.
Assay [3] deals with colon cancer cell line. Nature of the assay: Anti-cancer activity against colon cancer cell line. The conditions noted are these: read-out: IC50 (anticancer activity). The assay is classed as cell-based.

Each structure is given as a SMILES string. Values after ≈ are worked out from the molar mass of the structure shown.

In the case of `O=C1O[C@H]([C@@H](O)CO)C(O)=C1O` [1-ascorbic acid, reference compound], the “IC50 (Antioxidant activity)” value in assay [1] stood at 55.2 µg/mL (≈ 313 µM).
Take `CC1COc2c(N3CCN(C)CC3)c(F)cc3c(=O)c(C(=O)O)cn1c23` (stereo not shown) [Ofloxacin, reference compound]: the inhibition zone in assay [2] stood at 30 mm. For the same compound, in assay [2] (Escherichia coli), 2.25 µg/mL (≈ 6.23 µM) was the least that counted as inhibitory (MIC).
For `CC[C@]1(O)C[C@@H]2CN(CCc3c([nH]c4ccccc34)[C@@](C(=O)OC)(c3cc4c(cc3OC)N(C)[C@H]3[C@@](O)(C(=O)OC)[C@H](OC(C)=O)[C@]5(CC)C=CCN6CC[C@]43[C@@H]65)C2)C1` [vinblastine, reference compound], the IC50 in assay [3] came out at 4.7 µg/mL (≈ 5.8 µM).

For orientation: MIC means the lowest concentration found to suppress growth. Low readings indicate greater potency, high ones weaker potency. By IC50 is commonly meant the concentration that gives 50% inhibition.
